The record followed here is ChEMBL document CHEMBL1641467, “Quinazolinones as γ-secretase modulators” (Bioorg Med Chem Lett, 2011).

SMILES strings stand for the structures. In brackets after ≈: the same amount, converted by molar mass.

Series [1] has as its target Gamma-secretase. The series is described as follows: Inhibition of gamma-secretase in human SH-SY5Y cells overexpressing APP assessed as amyloid beta-42 production by electrochemiluminescent assay.
Series [2] concerns the target Gamma-secretase. The series is described as follows: Inhibition of gamma-secretase in human SH-SY5Y cells overexpressing APP assessed as amyloid beta-40 production by electrochemiluminescent assay.
Series [3] deals with Voltage-gated inwardly rectifying potassium channel KCNH2 (Homo sapiens, UniProt Q12809).
Sequence of Voltage-gated inwardly rectifying potassium channel KCNH2 (Q12809 whole entry): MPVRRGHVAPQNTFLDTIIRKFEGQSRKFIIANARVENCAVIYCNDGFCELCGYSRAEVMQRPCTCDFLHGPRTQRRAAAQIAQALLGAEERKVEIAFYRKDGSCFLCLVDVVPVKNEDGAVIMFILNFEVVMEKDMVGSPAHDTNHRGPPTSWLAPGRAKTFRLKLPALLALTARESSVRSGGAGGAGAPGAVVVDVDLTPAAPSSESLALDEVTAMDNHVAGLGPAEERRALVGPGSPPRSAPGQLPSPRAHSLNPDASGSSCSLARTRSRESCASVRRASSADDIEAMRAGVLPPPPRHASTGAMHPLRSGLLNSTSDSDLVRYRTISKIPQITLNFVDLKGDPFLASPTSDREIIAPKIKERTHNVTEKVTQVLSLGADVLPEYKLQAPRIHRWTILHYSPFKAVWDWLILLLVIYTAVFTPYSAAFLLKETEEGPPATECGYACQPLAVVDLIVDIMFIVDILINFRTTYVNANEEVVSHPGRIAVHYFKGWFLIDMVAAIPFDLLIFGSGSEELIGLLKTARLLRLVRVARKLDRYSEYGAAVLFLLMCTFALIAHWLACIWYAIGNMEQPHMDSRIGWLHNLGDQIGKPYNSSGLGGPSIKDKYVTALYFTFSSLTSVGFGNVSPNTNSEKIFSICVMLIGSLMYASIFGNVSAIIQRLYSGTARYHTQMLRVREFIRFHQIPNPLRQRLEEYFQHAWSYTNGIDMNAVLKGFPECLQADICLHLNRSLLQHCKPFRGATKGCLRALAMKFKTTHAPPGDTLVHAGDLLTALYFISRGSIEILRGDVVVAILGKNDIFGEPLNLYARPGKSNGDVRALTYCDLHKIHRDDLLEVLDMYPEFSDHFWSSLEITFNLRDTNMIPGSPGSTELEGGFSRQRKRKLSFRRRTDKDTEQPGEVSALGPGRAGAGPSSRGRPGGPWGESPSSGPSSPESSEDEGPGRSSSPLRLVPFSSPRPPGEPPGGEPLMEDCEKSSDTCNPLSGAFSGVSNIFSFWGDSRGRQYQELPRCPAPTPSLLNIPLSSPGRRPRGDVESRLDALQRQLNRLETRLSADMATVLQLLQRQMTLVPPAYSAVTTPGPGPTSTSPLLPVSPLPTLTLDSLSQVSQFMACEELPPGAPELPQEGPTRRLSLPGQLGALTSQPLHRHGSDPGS
Description: Displacement of radiolabeled MK-499 from human ERG expressed in HEK293 cells
The nature of series [4]: Oral bioavailability in Sprague-Dawley rat at 2 mg/kg. As to conditions: in vivo. In kind it is ADME, organism-based.
Series [5] is described as follows: Half life in Sprague-Dawley rat at 1 mg/kg, iv. As to conditions: in vivo. Also noted: dose 1 mg/kg, route intravenous. In kind it is ADME, organism-based.
Series [6] can be described thus: Plasma clearance in Sprague-Dawley rat at 1 mg/kg, iv. In kind it is ADME, organism-based. Also noted: dose 1 mg/kg, route intravenous.
Series [7] in a line: Plasma clearance in Sprague-Dawley rat at 2 mg/kg, po. Also noted: dose 2 mg/kg, route oral. In kind it is ADME, organism-based.
Series [8] concerns Rattus norvegicus. As to the kind of experiment: Dose normalized AUC in Sprague-Dawley rat at 2 mg/kg, po. In kind it is ADME, organism-based. Also noted: dose 2 mg/kg, route oral. As to conditions: in vivo.
A short description of series [9]: Volume of distribution at steady state in Sprague-Dawley rat at 1 mg/kg, iv. In kind it is ADME, organism-based. Also noted: dose 1 mg/kg, route intravenous. As to conditions: in vivo.
The test system of series [10] is Rattus norvegicus. As to the kind of experiment: Volume of distribution at steady state in Sprague-Dawley rat at 2 mg/kg, po. As to conditions: in vivo. Also noted: dose 2 mg/kg, route oral. In kind it is ADME, organism-based.
Series [11] can be described thus: Solubility of the compound in PBS buffer. In kind it is physicochemical.

A word on the IC50: it is the midpoint of a concentration-inhibition curve. `COc1cc(/C=C/c2nc3sc(C)c(C)c3c(=O)[nH]2)ccc1-n1cnc(C)c1`: the IC50 on Gamma-secretase [1] is 1650 nM; on Gamma-secretase [2], greater than 10000 nM; in [3] it was greater than 10000 nM.
Turning to `COc1cc(/C=C/c2nc3ccccc3[nH]2)ccc1-n1cnc(C)c1`, the 50% inhibitory concentration (IC50) on Gamma-secretase [1] is 840 nM; on Gamma-secretase [2], greater than 10000 nM; in series [3], 680 nM.
With `COc1cc(/C=C/c2nc3cc(S(C)(=O)=O)ccc3c(=O)[nH]2)ccc1-n1cnc(C)c1`, the IC50 was determined as 2180 nM on Gamma-secretase [1] and 6740 nM at Gamma-secretase [2].
`COc1cc(/C=C/c2nc3sc4c(c3c(=O)[nH]2)CCC4)ccc1-n1cnc(C)c1`: the results for the IC50 (on Gamma-secretase [1]; at Gamma-secretase [2]; in series [3]) were 370 nM, 3890 nM and 4730 nM, respectively.
Usually bioavailability stands for the share of a dose that reaches the circulation, judged against a reference dose that is usually intravenous. Higher therefore signals good availability. As a reminder, the half-life is the time in which the quantity being followed falls by half. Higher therefore signals slow decline. The clearance is the volume of plasma or blood freed of the substance per unit of time. The CL/F is clearance divided by bioavailability, as obtained after extravascular dosing. Broadly, the AUC is the area under the concentration-time curve, a measure of exposure. By Vd is commonly meant the apparent volume that relates the amount in the body to the concentration in plasma or blood. On to `COc1cc(/C=C/c2nc3cc(Cl)ccc3c(=O)[nH]2)ccc1-n1cnc(C)c1`, for which the bioavailability in series [4] came out at 59%. In series [5], the half-life was determined as 5.8 h. Also, the clearance in [6] is 6.8 mL/min/kg. This compound also had a CL/F in [7] of 8 mL/min/kg. Besides, the IC50 at Gamma-secretase [1] was 660 nM; on Gamma-secretase [2], greater than 10000 nM. The AUC with Rattus norvegicus [8] came out at 7 µM·h. In series [9], this compound displayed a Vd of 1.8 L/kg. This compound registered a Vdss with Rattus norvegicus [10] of 8 L/kg.
As to `COc1cc(/C=C/c2nc(N)nc(Nc3ccccc3)n2)ccc1-n1cnc(C)c1`, the results for the IC50 at Gamma-secretase [1] and at Gamma-secretase [2] were 1070 nM and 3330 nM, respectively.
With `COc1cc(/C=C/c2nc3ccccc3c(=O)n2-c2ccccc2)ccc1-n1cnc(C)c1`, the half-inhibitory concentration (IC50) on Gamma-secretase [1] is 2080 nM; at Gamma-secretase [2], greater than 10000 nM; in series [3], 990 nM.
As to `COc1cc(/C=C/c2nc(N)c3c4c(sc3n2)CCCCC4)ccc1-n1cnc(C)c1`, the IC50 at Gamma-secretase [1] turned out to be 200 nM; on Gamma-secretase [2], 2030 nM.
With `COc1cc(/C=C/c2nc3cccc(F)c3c(=O)[nH]2)ccc1-n1cnc(C)c1`, the concentration for half-maximal inhibition (IC50) is 4870 nM on Gamma-secretase [1] and greater than 10000 nM at Gamma-secretase [2].
On to `COc1cc(/C=C/c2nc3cc(Br)ccc3c(=O)[nH]2)ccc1-n1cnc(C)c1`, for which the IC50 at Gamma-secretase [1] came to 340 nM; on Gamma-secretase [2] it was 4820 nM.
For `COc1cc(/C=C/c2nc3scc(C)c3c(=O)[nH]2)ccc1-n1cnc(C)c1`, the IC50 is 1290 nM at Gamma-secretase [1], greater than 10000 nM at Gamma-secretase [2] and greater than 10000 nM in series [3].
With `COc1cc(/C=C/c2nc3ccc(F)cc3c(=O)[nH]2)ccc1-n1cnc(C)c1`, the half-inhibitory concentration (IC50) on Gamma-secretase [1] is 4280 nM; on Gamma-secretase [2], greater than 10000 nM.
As for `COc1cc(/C=C/c2nc3cc(C(F)(F)F)ccc3c(=O)[nH]2)ccc1-n1cnc(C)c1`, the IC50 on Gamma-secretase [1] came out at 370 nM; at Gamma-secretase [2], 3740 nM.
Consider `COc1cc(/C=C/c2nc(N)c3c(n2)oc2ccccc23)ccc1-n1cnc(C)c1`, for which the IC50 worked out at 320 nM on Gamma-secretase [1], 2960 nM on Gamma-secretase [2] and 510 nM in series [3].
The like results for `COc1cc(/C=C/c2nc(NCc3ccccc3)c3c4c(sc3n2)CCC4)ccc1-n1cnc(C)c1` were, in that order, 1860 nM, greater than 10000 nM and 1120 nM.
Turning to `CCOC(=O)c1sc2nc(/C=C/c3ccc(-n4cnc(C)c4)c(OC)c3)nc(N)c2c1C`, the IC50 is 540 nM on Gamma-secretase [1], 3720 nM on Gamma-secretase [2] and 980 nM in series [3].
`COc1cc(/C=C/c2nc3ccccc3c(=O)[nH]2)ccc1-n1cnc(C)c1`: the figures for the IC50 at Gamma-secretase [1] and on Gamma-secretase [2] were 3890 nM and 4950 nM, respectively.
By solubility is commonly meant how much of the substance goes into solution per volume. A high value points to a readily soluble substance. In series [11], `COc1cc(/C=C/c2nc(N)c3ccccc3n2)ccc1-n1cnc(C)c1` gave a solubility of 6 µM (≈ 2.14 µg/mL). The half-inhibitory concentration (IC50) on Gamma-secretase [1] stood at 1690 nM; at Gamma-secretase [2] it was 6100 nM; in series [3] it was 140 nM.
`COc1cc(/C=C/c2nc3ccccc3c(=O)n2C)ccc1-n1cnc(C)c1` came in with a solubility in series [11] of 33 µM (≈ 12.3 µg/mL). The IC50 at Gamma-secretase [1] and at Gamma-secretase [2] was greater than 10000 nM throughout.
